Source: ChEMBL document CHEMBL1201862, “PubChem BioAssay data set” (2004)
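A five-concentration, 48-hour dose response in 96-well plates underlies each endpoint, interpolated linearly between surrounding concentrations. GI50 = concentration required for 50% inhibition of growth.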 Activity calls are given as the source filed them. Cut-off read from the data, not from the text of the source: active = GI50 up to about 1.1 µM and inactive = higher.

Tests used:
Test in all cases: NCI-60 cell line screen, 48 h
786-0 = tested on: 786-0
A498 = tested on: A498
A549 = tested on: A549
ACHN = tested on: ACHN
CAKI-1 = tested on: CAKI-1
CCRF-CEM = tested on: CCRF-CEM
COLO 205 = tested on: COLO 205
DLD-1 = tested on: DLD-1
DMS-114 = tested on: DMS-114
DMS-273 = tested on: DMS-273
EKVX = tested on: EKVX
HCC 2998 = tested on: HCC 2998
HCT-116 = tested on: HCT-116
HCT-15 = tested on: HCT-15
HOP-62 = tested on: HOP-62
HOP-92 = tested on: HOP-92
HT-29 = tested on: HT-29
IGROV-1 = tested on: IGROV-1
K562 = tested on: K562
KM-20L2 = tested on: KM-20L2
KM12 = tested on: KM12
LOX IMVI = tested on: LOX IMVI
LXFL 529 = tested on: LXFL 529
M14 = tested on: M14
M19-MEL = tested on: M19-MEL
MOLT-4 = tested on: MOLT-4
Malme-3M = tested on: Malme-3M
NCI-H226 = tested on: NCI-H226
NCI-H23 = tested on: NCI-H23
NCI-H460 = tested on: NCI-H460
NCI-H522 = tested on: NCI-H522
OVCAR-3 = tested on: OVCAR-3
OVCAR-4 = tested on: OVCAR-4
OVCAR-5 = tested on: OVCAR-5
OVCAR-8 = tested on: OVCAR-8
RPMI-8226 = tested on: RPMI-8226
RXF 393 = tested on: RXF 393
RXF 631 = tested on: RXF 631
SF-268 = tested on: SF-268
SF-295 = tested on: SF-295
SF-539 = tested on: SF-539
SK-MEL-28 = tested on: SK-MEL-28
SK-MEL-2 = tested on: SK-MEL-2
SK-MEL-5 = tested on: SK-MEL-5
SK-OV-3 = tested on: SK-OV-3
SN12C = tested on: SN12C
SNB-19 = tested on: SNB-19
SNB-75 = tested on: SNB-75
SNB-78 = tested on: SNB-78
SW-620 = tested on: SW-620
TK-10 = tested on: TK-10
U-251 = tested on: U-251
UACC-257 = tested on: UACC-257
UACC-62 = tested on: UACC-62
UO-31 = tested on: UO-31

CNC(=O)NCCCC(NC(C)=O)C(=O)NCc1ccccc1 (stereo not given)
GI50 (786-0): > 100 µM (inactive)
GI50 (A498): > 100 µM (inactive)
GI50 (A549): > 100 µM (inactive)
GI50 (ACHN): > 100 µM (inactive)
GI50 (CAKI-1): > 100 µM (inactive)
GI50 (CCRF-CEM): > 100 µM (inactive)
GI50 (COLO 205): > 100 µM (inactive)
GI50 (DLD-1): > 100 µM (inactive)
GI50 (DMS-114): > 100 µM (inactive)
GI50 (DMS-273): > 100 µM (inactive)
GI50 (EKVX): > 100 µM (inactive)
GI50 (HCC 2998): > 100 µM (inactive)
GI50 (HCT-116): > 100 µM (inactive)
GI50 (HCT-15): > 100 µM
GI50 (HOP-62): > 100 µM (inactive)
GI50 (HOP-92): 92.9 µM (inactive)
GI50 (HT-29): > 100 µM (inactive)
GI50 (IGROV-1): > 100 µM (inactive)
GI50 (K562): > 100 µM (inactive)
GI50 (KM-20L2): > 100 µM (inactive)
GI50 (KM12): > 100 µM (inactive)
GI50 (LOX IMVI): > 100 µM (inactive)
GI50 (LXFL 529): > 100 µM (inactive)
GI50 (M14): > 100 µM (inactive)
GI50 (M19-MEL): > 100 µM (inactive)
GI50 (MOLT-4): > 100 µM (inactive)
GI50 (Malme-3M): > 100 µM (inactive)
GI50 (NCI-H226): > 100 µM (inactive)
GI50 (NCI-H23): > 100 µM (inactive)
GI50 (NCI-H460): > 100 µM (inactive)
GI50 (NCI-H522): > 100 µM (inactive)
GI50 (OVCAR-3): > 100 µM (inactive)
GI50 (OVCAR-4): > 100 µM (inactive)
GI50 (OVCAR-5): > 100 µM (inactive)
GI50 (OVCAR-8): > 100 µM (inactive)
GI50 (RPMI-8226): > 100 µM (inactive)
GI50 (RXF 393): > 100 µM (inactive)
GI50 (RXF 631): > 100 µM (inactive)
GI50 (SF-268): > 100 µM (inactive)
GI50 (SF-295): > 100 µM (inactive)
GI50 (SF-539): > 100 µM (inactive)
GI50 (SK-MEL-28): > 100 µM (inactive)
GI50 (SK-MEL-2): > 100 µM (inactive)
GI50 (SK-MEL-5): > 100 µM (inactive)
GI50 (SK-OV-3): > 100 µM (inactive)
GI50 (SN12C): > 100 µM (inactive)
GI50 (SNB-19): > 100 µM (inactive)
GI50 (SNB-75): 42.2 µM (inactive)
GI50 (SNB-78): > 100 µM (inactive)
GI50 (SW-620): > 100 µM (inactive)
GI50 (TK-10): > 100 µM (inactive)
GI50 (U-251): > 100 µM (inactive)
GI50 (UACC-257): > 100 µM (inactive)
GI50 (UACC-62): > 100 µM (inactive)
GI50 (UO-31): > 100 µM (inactive)
